# Earlier results in patent EP2739646B1, “COMPREHENSIVE BUFFER SYSTEM FOR RENATURING HUMAN PROINSULIN OR PROINSULIN DERIVATIVES” (Hermann, Stefan, priority 2011, dated 2012).
# Like-named read-outs stand apart in the source and are kept apart here.
# Assays:
# [1] = not given; remark: listed apart in the source
water solubility (at 25°C) [g/100g water],pKa ([1]; first value listed),pKa ([1]; second value listed),pKa ([1]; third value listed),Structure (SMILES),water solubility (temperature not given) [g/100ml]
16.5,–,–,–,C[C@H](N)C(=O)O [alanine],–
–,2.01,9.4,–,N=C(N)NCCC[C@H](N)C(=O)O [arginine],–
> 50,2.05,10.25,8.00,N[C@@H](CS)C(=O)O [cysteine],–
–,–,–,–,O=C(O)CCCC(=O)O [glutaric acid],64.0
–,–,–,–,CCCCC(=O)O [valeric acid],4.97

Structure (SMILES),water solubility (at 25°C) [g/100g water],pKa ([1]; first value listed),pKa ([1]; second value listed),pKa ([1]; third value listed),water solubility (temperature not given) [g/100ml]
O=C(O)[C@@H]1CCCN1 [proline],–,2.0,10.6,–,–
